# Species: Rattus norvegicus
# Assay: Open TG-GATES - Regimen: Daily Repeat
# Format: toxicity, organism-based, Sprague-Dawley
# Design: regimen Daily Repeat, gender Male, age 6 weeks
# Conditions: in vivo, po, 30 mg/kg, route gavage, dose level Middle; for APTT / Bas / Eos / Fbg / Hb / Ht / Lym / MCH / MCHC / MCV / Mono / Neu / PT / Plat / RBC / Ret / WBC: tissue Blood; for KIDNEY_L / KIDNEY_R / KIDNEY_TOTAL: tissue Kidney; for LIVER: tissue Liver; for A/G / ALP / ALT / AST / BUN / CRE / Ca / Cl / DBIL / GLC / IP / K / LDH / Na / PL / RALB / TBIL / TC / TG / TP / gamma-GTP: tissue Plasma
smiles,measurement,setting,value
O=C1CN(/N=C/c2ccc([N+](=O)[O-])o2)C(=O)N1 [NITROFURANTOIN],TERMINAL_BW,"72 h, time 3 day",243.4 g
same,APTT,"72 h, time 3 day",18.9 s
same,Bas,"72 h, time 3 day",0%
same,Eos,"72 h, time 3 day",1%
same,Fbg,"72 h, time 3 day",216.2 mg/dL
same,Hb,"72 h, time 3 day",13.6 g/dL
same,Ht,"72 h, time 3 day",38.5%
same,Lym,"72 h, time 3 day",79.4%
same,MCH,"72 h, time 3 day",22 pg
same,MCHC,"72 h, time 3 day",35.3%
same,MCV,"72 h, time 3 day",62.3 fL
same,Mono,"72 h, time 3 day",3.2%
same,Neu,"72 h, time 3 day",15.4%
same,PT,"72 h, time 3 day",12.6 s
same,Plat,"72 h, time 3 day",121.2 x10_4/uL
same,RBC,"72 h, time 3 day",617.8 x10_4/ul
same,Ret,"72 h, time 3 day",6.3%
same,WBC,"72 h, time 3 day",106.9 x10_2/uL
same,KIDNEY_L,"72 h, time 3 day",1 g
same,KIDNEY_R,"72 h, time 3 day",1 g
same,KIDNEY_TOTAL,"72 h, time 3 day",2.1 g
same,LIVER,"72 h, time 3 day",11.6 g
same,A/G,"72 h, time 3 day",1.6
same,ALP,"72 h, time 3 day",1110 IU/L
same,ALT,"72 h, time 3 day",35.4 IU/L
same,AST,"72 h, time 3 day",67.2 IU/L
same,BUN,"72 h, time 3 day",14.2 mg/dL
same,CRE,"72 h, time 3 day",0.4 mg/dL
same,Ca,"72 h, time 3 day",10.6 mg/dL
same,Cl,"72 h, time 3 day",101.6 meq/L
same,DBIL,"72 h, time 3 day",0.094 mg/dL
same,GLC,"72 h, time 3 day",210.8 mg/dL
same,IP,"72 h, time 3 day",7.6 mg/dL
same,K,"72 h, time 3 day",3.8 meq/L
same,LDH,"72 h, time 3 day",212 IU/L
same,Na,"72 h, time 3 day",140.4 meq/L
same,PL,"72 h, time 3 day",140.2 mg/dL
same,RALB,"72 h, time 3 day",3.5 g/dL
same,TBIL,"72 h, time 3 day",0.1 mg/dL
same,TC,"72 h, time 3 day",70.6 mg/dL
same,TG,"72 h, time 3 day",80.2 mg/dL
same,TP,"72 h, time 3 day",5.6 g/dL
same,gamma-GTP,"72 h, time 3 day",1 IU/L
same,TERMINAL_BW,"[…], time 7 day",275.5 g
same,TERMINAL_BW,"[…], time 14 day",332 g
same,TERMINAL_BW,"[…], time 28 day",404.8 g
same,APTT,"[…], time 7 day",18.5 s
same,Bas,"[…], time 7 day",0%
same,Eos,"[…], time 7 day",1%
same,Fbg,"[…], time 7 day",223 mg/dL
same,Hb,"[…], time 7 day",13.5 g/dL
same,Ht,"[…], time 7 day",38%
same,Lym,"[…], time 7 day",81%
same,MCH,"[…], time 7 day",21.3 pg
same,MCHC,"[…], time 7 day",35.6%
same,MCV,"[…], time 7 day",60 fL
same,Mono,"[…], time 7 day",2.2%
same,Neu,"[…], time 7 day",15.4%
same,PT,"[…], time 7 day",12.6 s
same,Plat,"[…], time 7 day",125.8 x10_4/uL
same,RBC,"[…], time 7 day",634.2 x10_4/ul
same,Ret,"[…], time 7 day",5.3%
same,WBC,"[…], time 7 day",120.4 x10_2/uL
same,APTT,"[…], time 14 day",18.9 s
same,Bas,"[…], time 14 day",0%
same,Eos,"[…], time 14 day",0.8%
same,Fbg,"[…], time 14 day",224 mg/dL
same,Hb,"[…], time 14 day",14.4 g/dL
same,Ht,"[…], time 14 day",41.6%
same,Lym,"[…], time 14 day",79.4%
same,MCH,"[…], time 14 day",20.8 pg
same,MCHC,"[…], time 14 day",34.7%
same,MCV,"[…], time 14 day",60 fL
same,Mono,"[…], time 14 day",2.2%
same,Neu,"[…], time 14 day",16.8%
same,PT,"[…], time 14 day",12.4 s
same,Plat,"[…], time 14 day",120.1 x10_4/uL
same,RBC,"[…], time 14 day",693 x10_4/ul
same,Ret,"[…], time 14 day",4.7%
same,WBC,"[…], time 14 day",121.2 x10_2/uL
same,APTT,"[…], time 28 day",20.8 s
same,Bas,"[…], time 28 day",0%
same,Eos,"[…], time 28 day",1.2%
same,Fbg,"[…], time 28 day",215 mg/dL
same,Hb,"[…], time 28 day",15.3 g/dL
same,Ht,"[…], time 28 day",43.5%
same,Lym,"[…], time 28 day",80.8%
same,MCH,"[…], time 28 day",19.8 pg
same,MCHC,"[…], time 28 day",35.1%
same,MCV,"[…], time 28 day",56.5 fL
same,Mono,"[…], time 28 day",2.6%
same,Neu,"[…], time 28 day",14.2%
same,PT,"[…], time 28 day",12.7 s
same,Plat,"[…], time 28 day",118.4 x10_4/uL
same,RBC,"[…], time 28 day",770.8 x10_4/ul
same,Ret,"[…], time 28 day",2.9%
same,WBC,"[…], time 28 day",92.9 x10_2/uL
same,KIDNEY_L,"[…], time 7 day",1.1 g
same,KIDNEY_R,"[…], time 7 day",1.1 g
same,KIDNEY_TOTAL,"[…], time 7 day",2.2 g
same,KIDNEY_L,"[…], time 14 day",1.4 g
same,KIDNEY_R,"[…], time 14 day",1.4 g
same,KIDNEY_TOTAL,"[…], time 14 day",2.7 g
same,KIDNEY_L,"[…], time 28 day",1.5 g
same,KIDNEY_R,"[…], time 28 day",1.5 g
same,KIDNEY_TOTAL,"[…], time 28 day",3 g
same,LIVER,"[…], time 7 day",12.9 g
same,LIVER,"[…], time 14 day",14.8 g
same,LIVER,"[…], time 28 day",16.9 g
same,A/G,"[…], time 7 day",1.3
same,ALP,"[…], time 7 day",965 IU/L
same,ALT,"[…], time 7 day",30.6 IU/L
same,AST,"[…], time 7 day",57.6 IU/L
same,BUN,"[…], time 7 day",17.6 mg/dL
same,CRE,"[…], time 7 day",0.4 mg/dL
same,Ca,"[…], time 7 day",10.7 mg/dL
same,Cl,"[…], time 7 day",101.8 meq/L
same,DBIL,"[…], time 7 day",0.1 mg/dL
same,GLC,"[…], time 7 day",197.6 mg/dL
same,IP,"[…], time 7 day",7.1 mg/dL
same,K,"[…], time 7 day",4.2 meq/L
same,LDH,"[…], time 7 day",193 IU/L
same,Na,"[…], time 7 day",140.4 meq/L
same,PL,"[…], time 7 day",164 mg/dL
same,RALB,"[…], time 7 day",3.3 g/dL
same,TBIL,"[…], time 7 day",0.2 mg/dL
same,TC,"[…], time 7 day",80.6 mg/dL
same,TG,"[…], time 7 day",163.2 mg/dL
same,TP,"[…], time 7 day",5.8 g/dL
same,gamma-GTP,"[…], time 7 day",1.2 IU/L
same,A/G,"[…], time 14 day",1.4
same,ALP,"[…], time 14 day",790.8 IU/L
same,ALT,"[…], time 14 day",33.2 IU/L
same,AST,"[…], time 14 day",58 IU/L
same,BUN,"[…], time 14 day",15.8 mg/dL
same,CRE,"[…], time 14 day",0.4 mg/dL
same,Ca,"[…], time 14 day",10.4 mg/dL
same,Cl,"[…], time 14 day",102.8 meq/L
same,DBIL,"[…], time 14 day",0.1 mg/dL
same,GLC,"[…], time 14 day",212.6 mg/dL
same,IP,"[…], time 14 day",7.1 mg/dL
same,K,"[…], time 14 day",3.7 meq/L
same,LDH,"[…], time 14 day",180.8 IU/L
same,Na,"[…], time 14 day",140.6 meq/L
same,PL,"[…], time 14 day",161.4 mg/dL
same,RALB,"[…], time 14 day",3.4 g/dL
same,TBIL,"[…], time 14 day",0.2 mg/dL
same,TC,"[…], time 14 day",78 mg/dL
same,TG,"[…], time 14 day",126.6 mg/dL
same,TP,"[…], time 14 day",5.9 g/dL
same,gamma-GTP,"[…], time 14 day",1.2 IU/L
same,A/G,"[…], time 28 day",1.4
same,ALP,"[…], time 28 day",568.2 IU/L
same,ALT,"[…], time 28 day",31.6 IU/L
same,AST,"[…], time 28 day",54.4 IU/L
same,BUN,"[…], time 28 day",16.4 mg/dL
same,CRE,"[…], time 28 day",0.5 mg/dL
same,Ca,"[…], time 28 day",10.5 mg/dL
same,Cl,"[…], time 28 day",103.2 meq/L
same,DBIL,"[…], time 28 day",0.1 mg/dL
same,GLC,"[…], time 28 day",208 mg/dL
same,IP,"[…], time 28 day",6.3 mg/dL
same,K,"[…], time 28 day",3.5 meq/L
same,LDH,"[…], time 28 day",133.4 IU/L
same,Na,"[…], time 28 day",140.6 meq/L
same,PL,"[…], time 28 day",146 mg/dL
same,RALB,"[…], time 28 day",3.6 g/dL
same,TBIL,"[…], time 28 day",0.2 mg/dL
same,TC,"[…], time 28 day",66.4 mg/dL
same,TG,"[…], time 28 day",137.6 mg/dL
same,TP,"[…], time 28 day",6.1 g/dL
same,gamma-GTP,"[…], time 28 day",1.4 IU/L

# — ChEMBL document CHEMBL3885861, “Open TG-GATES”
